Measured values: US7393868B2, “AMPA receptor potentiators” (Eli Lilly and Company, priority 2005, dated 2008)

Molecular target: T1, human iGluR4 (Homo sapiens, UniProt P48058)
T1 construct: expressed in transfected cells; host or cells: HEK293
Assay: Whole-cell voltage clamp potentiation of glutamate-evoked current in HEK293 cells stably expressing human iGluR4
Format: cell-based
Conditions: whole-cell voltage clamp at −60 mV, potentiation of current evoked by 1 mM glutamate, Hill equation fit
Description: HEK293 cells stably expressing human iGluR4(obtained as described in European Patent Application Publication No. EP-A1-0583917) are used in the electrophysiological characterization of AMPA receptor potentiators. The extracellular recording solution contains (in mM): 140 NaCl, 5 KCl, 10 HEPES, 1 MgCl2, 2 CaCl2, 10 glucose, pH=7.4 with NaOH, 295 mOsm kg−1. The intracellular recording solution contains (in mM): 140 CsCl, 1 MgCl2, 10 HEPES, (N-[2-hydroxyethyl]piperazine-N1-[2-ethanesulfonic acid]) 10 EGTA (ethylene-bis(oxyethylene-nitrilo)tetraacetic acid), pH=7.2 with CsOH, 295 mOsm kg−1. With these solutions, recording pipettes have a resistance of 2-3 MΩ. Using the whole-cell voltage clamp technique (Hamill et al. (1981) Pflügers Arch., 391: 85-100), cells are voltage-clamped at −60 mV and control current responses to 1 mM glutamate are evoked. Responses to 1 mM glutamate are then determined in the presence of test compound. Compounds are deemed active in this test if, at a test concentration of 10 μM or less, they produce a greater than 10% increase in the value of the current evoked by 1 mM glutamate.
In order to determine the potency of test compounds, the concentration of the test compound, both in the bathing solution and co-applied with glutamate, is increased in half log units until the maximum effect was seen. Data collected in this manner are fit to the Hill equation, yielding an EC50 value, indicative of the potency of the test compound. Reversibility of test compound activity is determined by assessing control glutamate 1 mM responses. Once the control responses to the glutamate challenge are re-established, the potentiation of these responses by 100 μM cyclothiazide is determined by its inclusion in both the bathing solution and the glutamate-containing solution. In this manner, the efficacy of the test compound relative to that of cyclothiazide can be determined.

T1 sequence (P48058 21-902): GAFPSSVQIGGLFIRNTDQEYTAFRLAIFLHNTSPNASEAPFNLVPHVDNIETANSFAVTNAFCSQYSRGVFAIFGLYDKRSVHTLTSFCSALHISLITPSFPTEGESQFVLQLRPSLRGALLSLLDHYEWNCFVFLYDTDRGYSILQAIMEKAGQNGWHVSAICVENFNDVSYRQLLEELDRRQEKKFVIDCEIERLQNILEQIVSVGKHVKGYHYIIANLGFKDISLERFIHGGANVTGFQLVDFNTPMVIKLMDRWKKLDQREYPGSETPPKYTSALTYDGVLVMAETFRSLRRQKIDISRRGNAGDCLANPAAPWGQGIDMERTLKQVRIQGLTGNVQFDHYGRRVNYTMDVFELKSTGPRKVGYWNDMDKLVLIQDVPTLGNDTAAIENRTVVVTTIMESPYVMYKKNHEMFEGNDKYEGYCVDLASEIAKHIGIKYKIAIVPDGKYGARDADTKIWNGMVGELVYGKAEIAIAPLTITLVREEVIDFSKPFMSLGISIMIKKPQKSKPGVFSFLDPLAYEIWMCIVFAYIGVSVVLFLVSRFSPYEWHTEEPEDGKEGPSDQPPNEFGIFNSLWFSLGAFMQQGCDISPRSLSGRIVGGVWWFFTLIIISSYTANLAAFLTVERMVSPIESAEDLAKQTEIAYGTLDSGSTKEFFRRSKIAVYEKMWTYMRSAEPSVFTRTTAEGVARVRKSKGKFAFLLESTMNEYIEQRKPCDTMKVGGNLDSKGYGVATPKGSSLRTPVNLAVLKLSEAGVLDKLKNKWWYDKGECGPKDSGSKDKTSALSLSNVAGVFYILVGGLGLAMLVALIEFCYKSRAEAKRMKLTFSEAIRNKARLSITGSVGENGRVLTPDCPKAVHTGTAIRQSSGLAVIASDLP

Row | Compound | EC50 [µM]
1 | CC(C)S(=O)(=O)Nc1ccsc1-c1ccc(-c2cc(F)c(O)c(F)c2)cc1 [Example 11, Propane-2-sulfonic acid [2-(3′,5′-difluoro-4′-hydroxy-biphenyl-4-yl)-thiophen-3-yl]-amide] | 0.72
2 | COc1cc(C(=O)O)ccc1-c1ccc(-c2ccccc2NS(=O)(=O)C(C)C)cc1 [Example 46, 2″-Methoxy-2-(propane-2-sulfonylamino)-[1,1′;4′,1″]terphenyl-4″-carboxylic acid] | 0.977
3 | CC(C)S(=O)(=O)Nc1cnccc1-c1ccc(-c2ccc(C(=O)O)cc2C#N)cc1 [Example 51, 2-Cyano-4′-[3-(propane-2-sulfonylamino)-pyridin-4-yl]-biphenyl-4-carboxylic acid] | 2.46
4 | CC(C)S(=O)(=O)Nc1ccsc1-c1ccc(-c2cc(F)c(O)c(F)c2C#N)cc1 [Example 56, Propane-2-sulfonic acid [2-(2′-cyano-3′,5′-difluoro-4′-hydroxy-biphenyl-4-yl)-thiophen-3-yl]-amide] | 0.151
5 | CC(C)S(=O)(=O)Nc1ccsc1-c1ccc(-c2ccc(C(=O)O)cc2C#N)cc1 [Example 72, 2-Cyano-4′-[3-(propane-2-sulfonylamino)-thiophen-2-yl]-biphenyl-4-carboxylic acid] | 0.188
